Data: ChEMBL document CHEMBL2040761, “Design, synthesis, and evaluation of indanone derivatives as acetylcholinesterase inhibitors and metal-chelating agents” (Bioorg Med Chem Lett, 2012)
Calls of active or inactive are those of the source. The rule behind the calls is not given here.

How the values were obtained:
Cholinesterase = Cholinesterase (Equus caballus, UniProt P81908)
Description: Inhibition of equine serum butyrylcholinesterase using butyrylthiocholine chloride as substrate incubated for 15 mins prior to substrate addition measured every 1 min by Ellman's assay

Acetylcholinesterase = Acetylcholinesterase (Electrophorus electricus, UniProt O42275)
Description: Inhibition of electric eel acetylcholine esterase using acetylcholine chloride as substrate incubated for 15 mins prior to substrate addition measured every 1 min by Ellman's assay

[1] = target: Acetylcholinesterase (Electrophorus electricus) (UniProt O42275); assay: Mixed-type inhibition of electric eel acetylcholine esterase using acetylcholine chloride as substrate at 0.001 to 0.003 uM incubated for 15 mins by Lineweaver Burk plot analysis
[2] = target: Acetylcholinesterase (Electrophorus electricus) (UniProt O42275); assay: Ratio of tacrine IC50 to compound IC50 for electric eel acetylcholine esterase
[3] = target: Acetylcholinesterase (Electrophorus electricus) (UniProt O42275); assay: Ratio of donepezil IC50 to compound IC50 for electric eel acetylcholine esterase

Cholinesterase, sequence (P81908 whole entry): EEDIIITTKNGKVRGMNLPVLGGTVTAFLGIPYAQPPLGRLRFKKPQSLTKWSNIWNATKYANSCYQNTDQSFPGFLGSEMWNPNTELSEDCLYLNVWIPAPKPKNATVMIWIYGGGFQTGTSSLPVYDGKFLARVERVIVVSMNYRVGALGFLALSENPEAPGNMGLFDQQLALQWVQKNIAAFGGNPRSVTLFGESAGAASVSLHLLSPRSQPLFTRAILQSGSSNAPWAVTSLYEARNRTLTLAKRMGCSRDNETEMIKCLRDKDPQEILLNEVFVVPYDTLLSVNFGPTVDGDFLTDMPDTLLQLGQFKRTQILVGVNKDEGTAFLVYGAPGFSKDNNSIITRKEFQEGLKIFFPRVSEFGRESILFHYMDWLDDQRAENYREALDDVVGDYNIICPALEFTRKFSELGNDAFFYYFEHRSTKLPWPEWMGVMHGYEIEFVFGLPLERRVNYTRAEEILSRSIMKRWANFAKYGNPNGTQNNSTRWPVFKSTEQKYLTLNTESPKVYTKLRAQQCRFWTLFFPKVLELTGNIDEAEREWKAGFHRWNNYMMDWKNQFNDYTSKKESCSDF
Acetylcholinesterase, sequence (O42275 whole entry): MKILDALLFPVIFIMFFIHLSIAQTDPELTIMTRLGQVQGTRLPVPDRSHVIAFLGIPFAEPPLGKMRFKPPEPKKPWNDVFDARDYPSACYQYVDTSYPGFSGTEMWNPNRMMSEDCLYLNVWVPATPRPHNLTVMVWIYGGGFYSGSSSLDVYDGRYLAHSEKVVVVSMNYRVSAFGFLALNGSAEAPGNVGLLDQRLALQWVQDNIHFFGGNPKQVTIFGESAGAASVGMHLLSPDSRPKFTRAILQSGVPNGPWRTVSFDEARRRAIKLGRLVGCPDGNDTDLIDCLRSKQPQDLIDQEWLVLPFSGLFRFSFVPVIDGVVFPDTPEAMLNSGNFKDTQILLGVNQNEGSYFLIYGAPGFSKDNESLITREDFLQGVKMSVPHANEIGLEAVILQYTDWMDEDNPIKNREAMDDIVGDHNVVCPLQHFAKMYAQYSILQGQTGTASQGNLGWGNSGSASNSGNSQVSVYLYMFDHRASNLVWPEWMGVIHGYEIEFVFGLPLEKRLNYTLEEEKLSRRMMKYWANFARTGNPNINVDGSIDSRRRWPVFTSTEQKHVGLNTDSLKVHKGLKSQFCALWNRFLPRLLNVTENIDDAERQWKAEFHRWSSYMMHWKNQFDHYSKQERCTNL
Acetylcholinesterase (Electrophorus electricus), sequence (O42275 24-633 limits assumed): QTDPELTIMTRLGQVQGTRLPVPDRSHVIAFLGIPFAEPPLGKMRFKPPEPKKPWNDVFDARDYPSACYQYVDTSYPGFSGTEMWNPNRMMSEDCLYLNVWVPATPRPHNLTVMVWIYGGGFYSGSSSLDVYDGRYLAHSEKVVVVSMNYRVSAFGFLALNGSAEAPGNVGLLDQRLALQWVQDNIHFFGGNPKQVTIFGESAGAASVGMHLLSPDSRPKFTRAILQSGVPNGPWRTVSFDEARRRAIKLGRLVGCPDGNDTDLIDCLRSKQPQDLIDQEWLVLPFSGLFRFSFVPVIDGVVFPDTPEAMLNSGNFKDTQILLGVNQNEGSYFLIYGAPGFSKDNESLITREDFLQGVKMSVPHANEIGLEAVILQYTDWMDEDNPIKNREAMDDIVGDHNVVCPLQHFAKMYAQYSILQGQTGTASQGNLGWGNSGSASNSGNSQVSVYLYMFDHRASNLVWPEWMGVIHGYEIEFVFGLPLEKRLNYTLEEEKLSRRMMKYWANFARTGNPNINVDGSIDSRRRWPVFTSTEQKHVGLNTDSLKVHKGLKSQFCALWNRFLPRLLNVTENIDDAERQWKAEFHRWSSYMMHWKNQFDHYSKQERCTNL

Question: How did the IC50 (Cholinesterase) turn out when `COc1cc2c(cc1OCCCCN1CCCCC1)C(=O)/C(=C\c1ccncc1)C2` was run?
Answer: 13.8 µM

Question: What about the IC50 (Acetylcholinesterase) of the same molecule?
Answer: 0.081 µM

Question: `COc1cc2c(cc1OCCCCCCCCCN1CCCCC1)C(=O)/C(=C\c1ccncc1)C2` was tested. Which IC50 (Cholinesterase) did it give?
Answer: 1.24 µM

Question: What about the IC50 (Acetylcholinesterase) of the same molecule?
Answer: 0.734 µM

Question: `COc1cc2c(cc1OCCN1CCCCC1)C(=O)CC2` was tested. Which IC50 (Cholinesterase) did it give?
Answer: 137 µM

Question: And the IC50 (Acetylcholinesterase)?
Answer: 3.11 µM

Question: Which IC50 (Cholinesterase) does the source give for `COc1cc2c(cc1OCCCCCCn1ccnc1)C(=O)/C(=C\c1ccncc1)C2` here?
Answer: 18.5 µM

Question: And the IC50 (Acetylcholinesterase)?
Answer: 2.87 µM

Question: What does the source list for `COc1cc2c(cc1O)C(=O)CC2`?
Answer: IC50 (Cholinesterase): 258 µM; IC50 (Acetylcholinesterase): 92 µM

Question: What does the source list for `COc1cc2c(cc1O)C(=O)/C(=C\c1ccncc1)C2`?
Answer: IC50 (Cholinesterase): 247 µM; IC50 (Acetylcholinesterase): 49.6 µM

Question: Which IC50 (Cholinesterase) does the source give for `CCN(CC)CCCCOc1cc2c(cc1OC)C/C(=C/c1ccncc1)C2=O` here?
Answer: 28.9 µM

Question: What about the IC50 (Acetylcholinesterase) of the same molecule?
Answer: 0.205 µM

Question: With `COc1cc2c(cc1OCCN1CCCCC1)C(=O)C(Cc1ccccc1)C2` (centres undefined) as the molecule, how does the IC50 (Cholinesterase) read?
Answer: 9.2 µM

Question: And the IC50 (Acetylcholinesterase)?
Answer: 1.27 µM

Question: Which results are given for `COc1cc2c(cc1OCCCCN1CCCC1)C(=O)/C(=C\c1ccncc1)C2`?
Answer: IC50 (Cholinesterase): 17.5 µM; IC50 (Acetylcholinesterase): 0.156 µM

Question: Which IC50 (Cholinesterase) does the source give for `CCN(CC)CCCCCCOc1cc2c(cc1OC)C/C(=C/c1ccncc1)C2=O` here?
Answer: 13.4 µM

Question: And the IC50 (Acetylcholinesterase)?
Answer: 0.271 µM

Question: Which results are given for `COc1cc2c(cc1OCCCN1CCCCC1)C(=O)/C(=C\c1ccncc1)C2`?
Answer: IC50 (Cholinesterase): 42.7 µM; IC50 (Acetylcholinesterase): 0.062 µM

Question: For `COc1cc2c(cc1OCCCCCN1CCCCC1)C(=O)/C(=C\c1ccncc1)C2`, which IC50 (Cholinesterase) is on record?
Answer: 9.15 µM

Question: And the IC50 (Acetylcholinesterase)?
Answer: 0.288 µM

Question: For `COc1cc2c(cc1OCCCCCN1CCCCC1)C(=O)CC2`, which IC50 (Cholinesterase) is on record?
Answer: 115 µM

Question: What about the IC50 (Acetylcholinesterase) of the same molecule?
Answer: 0.361 µM

Question: Which results are given for `COc1cc2c(cc1OCCN1CCCCC1)C(=O)/C(=C\c1ccccn1)C2`?
Answer: IC50 (Cholinesterase): 7.48 µM; IC50 (Acetylcholinesterase): 0.0044 µM

Question: Which IC50 (Cholinesterase) does the source give for `COc1cc2c(cc1OCCCCCCN1CCCCC1)C(=O)/C(=C\c1ccncc1)C2` here?
Answer: 4.47 µM

Question: And the IC50 (Acetylcholinesterase)?
Answer: 0.232 µM

Question: Which inhibition [1] does the source give for `COc1cc2c(cc1OCCN1CCCCC1)C(=O)/C(=C\c1ccncc1)C2` here?
Answer: Active

Question: What about the Ratio IC50 [2] of the same molecule?
Answer: 47

Question: And the IC50 (Cholinesterase)?
Answer: 9.5 µM

Question: And the Ratio IC50 [3]?
Answer: 14

Question: And the IC50 (Acetylcholinesterase)?
Answer: 0.0018 µM

Question: Which IC50 (Cholinesterase) does the source give for `COc1cc2c(cc1OCCN1CCCCC1)C(=O)/C(=C\c1ccccc1)C2` here?
Answer: 2.24 µM

Question: What about the IC50 (Acetylcholinesterase) of the same molecule?
Answer: 0.0091 µM

Question: For `COc1cc2c(cc1OCCCN1CCCCC1)C(=O)CC2`, which IC50 (Cholinesterase) is on record?
Answer: 32.9 µM

Question: And the IC50 (Acetylcholinesterase)?
Answer: 0.916 µM
